Laboratory results reported in patent publication USRE42890E1, “Furazanobenzimidazoles” (Basilea Pharmaceutica AG, priority 2003, dated 2011).
Like-named read-outs stand apart in the source and are kept apart here.

How the values were obtained:
[1] = system: Jurkat; experiment: MTS proliferation assay, Jurkat; assay type: cell-based, human; conditions: 72 h incubation, read-out: MTS proliferation assay IC 50 Jurkat
Description: (§1) Cell lines are cultured in RPMI-1640 tissue culture medium containing either 5% or 10% fetal calf serum, 0.05 mM 2-mercaptoethanol, 2 mM glutamine and penicillin/streptomycin 50 μg/ml (complete medium) (Sigma, Buchs, Switzerland). General growth conditions are 37° C. and 7.5% CO2.
(§2) The following human cell lines (either EGFP transfected or not) are being used: HeLa (ATCC: CCL-2), KB (ATCC: CCL-17), MCF7 (ATCC: HTB-22), SK-BR-3 (ATCC: HTB-30), SK-Mel 1 (ATCC: HTB-67), SK-Mel 28 (ATCC: HTB-72), PC-3 (ATCC: CRL-1435), SW 480 (ATCC: CCL-228), NCl-H460 (ATCC: HTB-177), NCl-H1792 (ATCC: CRL-5895), HT1080 (ATCC: CCL-21), Jurkat (ATCC: TIB-152), Ramos (ATCC: CRL-1596), Raji (ATCC: CCL-86), H9 (ATCC: HTB-176), Hut78 (ATCC: TIB-161), K562 (ATCC: CCL 243), HL-60 (ATCC: CCL 240), U-87MG (ATCC: HTB-14), HepG2 (ATCC: HB-8065), U-2 OS (ATCC: HTB-96), Saos-2 (ATCC: HTB-85), U937 (ATCC: CRL 1593), Hs 578T (ATCC: HTB 126), HBL-100 (ATCC: HTB 124), Molt-4 (ATCC: CRL 1582).
(§3) The assay is performed in 96 well tissue culture plates. The cells (range: 1.5*10^3-10^4) are seeded out in 80 μl complete medium 24 h prior to compound treatment. The test compounds are added in 20 μl complete medium containing max 5% DMSO. The final compound concentrations in the assays are 10 μM, 3 μM, 1 μM and 0.3 μM, respectively. The assay plates are incubated for 72 h at culture conditions. The MTS reagent is prepared according to the manufacturer's protocol (Promega G1111). 20 μl MTS reagent are added to each well, the assay plates are quickly spun and incubated for another 3 h at culture conditions. Subsequently, the plates are shortly shaked and absorption measured with a microplate-reader at 492 nm.

[2] = system: HeLa; experiment: MTS proliferation assay, HeLa; assay type: cell-based, human; conditions: 72 h incubation, read-out: MTS proliferation assay IC 50 HeLa
Description: as §1, §2, §3

[3] = system: MRC5; experiment: MTS proliferation assay, MRC5; assay type: cell-based; conditions: MRC5, 72 h incubation, read-out: MTS proliferation assay IC 50 MRC5
Description: as §1, §3

[4] = system: adherent cells or suspension cells; experiment: Hoechst 33342 nuclear staining (fraction of apoptotic nuclei); assay type: cell-based; set-up: key: 0 relating to no activity; 1 relating to weak activity comprising less than 70% of the cells; score 2 relating to strong activity comprising more than 70% of the cells
Description: as §1
This assay is performed in 96 well tissue culture plates. Appropriate number of cells (adherent cells: 3-5*10^3, suspension cells: 8-10*10^3) are being seeded out in 80 μl complete medium. Adherent cells are incubated for 24 h for proper spreading out before addition of test compounds while suspension cells are immediately treated with test compounds after seeding out. The test compounds are added in 20 μl complete medium containing max 5% DMSO. […] After 24 h or 48 h incubation at culture conditions, 10 μl medium containing Hoechst 33342 dye (Sigma B-2261) at 2-5 μg/ml are added to each well. The assay plates are then further incubated for 30 minutes and subsequently analyzed with a standard inverted fluorescence microscope.
The readout allows the determination of the fraction of apoptotic nuclei as well as other morphological criteria specific for apoptosis as a function of the treatment. The following scores are used: 0 relating to no activity, 1 relating to weak activity comprising less than 70% of the cells and score 2 relating to strong activity comprising more than 70% of the cells.

Row | SMILES | Hoechst 33342 nuclear staining score ([4]; HeLa, conc 0.01 μm) | Hoechst 33342 nuclear staining score ([4]; HeLa, conc 0.1 μm) | Hoechst 33342 nuclear staining score ([4]; HeLa, conc 1 μm) | Hoechst 33342 nuclear staining score ([4]; Jurkat, conc 0.01 μm) | Hoechst 33342 nuclear staining score ([4]; Jurkat, conc 0.1 μm) | Hoechst 33342 nuclear staining score ([4]; Jurkat, conc 1 μm) | Hoechst 33342 nuclear staining score ([4]; MRC5, conc 0.01 μm) | Hoechst 33342 nuclear staining score ([4]; MRC5, conc 0.1 μm) | Hoechst 33342 nuclear staining score ([4]; MRC5, conc 1 μm) | Hoechst 33342 nuclear staining score ([4]; PBLs, conc 0.01 μm) | Hoechst 33342 nuclear staining score ([4]; PBLs, conc 0.1 μm) | Hoechst 33342 nuclear staining score ([4]; PBLs, conc 1 μm) | IC50 [1] [nM] | IC50 [2] [nM] | Hoechst 33342 nuclear staining score ([4]; H460, conc 0.01 μm) | Hoechst 33342 nuclear staining score ([4]; H460, conc 0.1 μm) | Hoechst 33342 nuclear staining score ([4]; H460, conc 1 μm) | Hoechst 33342 nuclear staining score ([4]; Jily, conc 0.01 μm) | Hoechst 33342 nuclear staining score ([4]; Jily, conc 0.1 μm) | Hoechst 33342 nuclear staining score ([4]; Jily, conc 1 μm) | also measured
1 | CC(=O)Nc1nonc1-c1nc2ccccc2n1CC(=O)c1ccc(Cl)cc1 [Example 5, N-{4-[1-(4-Chlorophenacyl)-1H-benzimidazol-2-yl]-furazan-3-yl}-acetamide] | 0 | 0 | 2 (score 2 relating to strong activity comprising more than 70% of the cells) | 0 | 0 | 2 (score 2 relating to strong activity comprising more than 70% of the cells) | 0 | 0 | 0 | 0 | 0 | 0 | – | – | – | – | – | – | – | – | IC50 ([1]; Homo sapiens): 100 to 1000 nM; IC50 ([2]; Homo sapiens): 100 to 1000 nM; IC50 ([3]; Homo sapiens): 100 to 1000 nM
2 | CON=C(Cn1c(-c2nonc2N)nc2ccccc21)c1ccc(OC)cc1 (mixture of isomers) [Example 38] | 0 | 0 | 0 | 0 | 0 | 0 | 0 | 0 | 0 | 0 | 0 | 0 | 100 to 1000 | 100 to 1000 | 0 | 0 | 0 | 0 | 0 | 0 | IC50 [3]: > 1000 nM
3 | COc1cccc(C(Cn2c(-c3nonc3N)nc3ccccc32)=NO)c1 (mixture of isomers) [Example 24] | 0 | 0 | 0 | 0 | 0 | 0 | 0 | 0 | 0 | 0 | 0 | 0 | > 1000 | > 1000 | 0 | 0 | 0 | 0 | 0 | 0 | IC50 [3]: > 1000 nM
4 | CON=C(Cn1c(-c2nonc2N)nc2ccccc21)c1cccc(OC)c1 (mixture of isomers) [Example 25] | 0 | 0 | 0 | 0 | 0 | 1 (1 relating to weak activity comprising less than 70% of the cells) | 0 | 0 | 0 | 0 | 0 | 0 | 100 to 1000 | > 1000 | 0 | 0 | 0 | 0 | 0 | 0 | IC50 [3]: > 1000 nM
5 | Nc1nonc1-c1nc2ccccc2n1CC(=NO)c1ccccc1 (mixture of isomers) [Example 17] | 0 | 0 | 0 | 0 | 0 | 0 | 0 | 0 | 0 | 0 | 0 | 0 | > 1000 | > 1000 | 0 | 0 | 0 | 0 | 0 | 0 | –
6 | CNc1nonc1-c1nc2ccccc2n1CC(=O)c1ccc(Cl)cc1 [Example 3, Methyl-{4-[1-(4-chlorophenacyl)-1H-benzimidazol-2-yl]-furazan-3-yl}-amine] | 0 | 0 | 0 | 0 | 0 | 0 | 0 | 0 | 0 | 0 | 0 | 0 | – | – | – | – | – | – | – | – | IC50 ([1]; Homo sapiens): 100 to 1000 nM; IC50 ([3]; Homo sapiens): > 1000 nM
